According to US10344026B2, “Compositions and methods of targeting mutant K-ras” (NANTBIO, INC., priority 2017, dated 2019):
Like-named read-outs stand apart in the source and are kept apart here.

Columns and labels:
Format in all cases: cell-based
HCT116-G31D = assay: Viability assay (CellTiterBlue, 72 hr) HCT116; conditions: Homo sapiens, HCT-116, GI50, CellTiterBlue, read-out: 72 hr Cell Viability HCT116 (G13D)
Method: (§1) Viability assays were performed on exemplary compounds and Table 2 below lists exemplary results for selected compounds tested on K-Ras wild type cell lines (Ishikawa, U87-MG, HCC827, and A375) and various K-Ras mutant cell lines (Panc1-G12D; Panc10.05-G12D; HCT116-G31D). Results are expressed in μM and corresponding structures are shown in FIGS. 2A-2G and Examples 1-152, above.
(§2) Cells are counted and seeded at 1000 cells/36 ul medium/well into 384-well microplates. Cells are returned to 37° C. CO2 incubator for 18 hr. Drug is made as 200× in DMSO and diluted into medium to 10×. To each well is added 4 ul 10× drug, and plates are returned to the incubator. Final assay DMSO concentration is 0.5%. After 72 hr, 8 ul CellTiterBlue (Promega) is added to each well. After 3 hr, fluorescence (Ex550/Em590) is determined on the Victor Plate Reader (Perkin Elmer). Assay range is determined by DMSO control (100% viability) and 100 uM tamoxifen (0% viability). GI50 values are calculated using Graphpad Prism.

Panc10.05-G12D = assay: Viability assay (CellTiterBlue, 72 hr) Panc10.05; conditions: Homo sapiens, Panc1005, GI50, CellTiterBlue, read-out: 72 hr Cell Viability Panc10.05 (G12D)
Method: as §1, §2

K-Ras G12D = molecular target: T1, K-Ras G12D (Homo sapiens, UniProt P01116, G12D); assay: G-LISA Ras activation, 293H cells transfected with G12D mutant; conditions: compound 1 hour
T1 construct: expressed in transfected cells; host or cells: 293H cells
Method: 293H cells were seeded in 6-wells at 0.6×10^6 cells per well and transfected next day with 5 μg of Ras wild-type, or G12C, G12D or G12V mutant DNA plasmid vector using transfection reagent Lipofectamine 3000. Next day cells were treated with 3.125-25 μM of Ras compounds for 1 hour. Wild-type transfected cells were subsequently treated with 100 ng/ml EGF for 2 minutes. Cells were washed once in ice-cold PBS, lysed in complete lysis buffer on ice, and processed by G-LISA according to Cytoskeleton protocol.

[1] = tested on: HCC827 (K-Ras wild type cell line); assay: Viability assay (CellTiterBlue, 72 hr) HCC827; conditions: Homo sapiens, GI50, CellTiterBlue
Method: as §1, §2

Panc1-G12D = assay: Viability assay (CellTiterBlue, 72 hr) Panc1; conditions: Homo sapiens, PANC-1, GI50, CellTiterBlue, read-out: 72 hr Cell Viability Panc1 (G12D)
Method: as §1, §2

[2] = tested on: U87-MG (K-Ras wild type cell line); assay: Viability assay (CellTiterBlue, 72 hr) U87-MG; conditions: Homo sapiens, U-87 MG, GI50, CellTiterBlue
Method: as §1, §2

[3] = tested on: Ishikawa (K-Ras wild type cell line); assay: Viability assay (CellTiterBlue, 72 hr) Ishikawa; conditions: Homo sapiens, GI50, CellTiterBlue
Method: as §1, §2

[4] = Ishikawa cells (K-Ras wild-type)

T1 sequence (P01116 whole entry G12D): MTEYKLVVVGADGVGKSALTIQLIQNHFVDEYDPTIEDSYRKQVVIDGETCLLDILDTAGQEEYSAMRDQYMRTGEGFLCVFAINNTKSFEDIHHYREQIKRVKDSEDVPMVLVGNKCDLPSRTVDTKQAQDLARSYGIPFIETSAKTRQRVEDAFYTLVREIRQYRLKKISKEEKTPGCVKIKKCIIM

| Structure (SMILES) | IC50 (HCT116-G31D; HCT116 cells (K-Ras G13D)) [µM] | IC50 (Panc10.05-G12D; Panc10.05 cells (K-Ras G12D)) [µM] | IC50 (K-Ras G12D) [µM] | IC50 ([1]; HCC827 cells (K-Ras wild-type)) [µM] | IC50 (Panc1-G12D; Panc1 cells (K-Ras G12D)) [µM] | IC50 ([2]; U87-MG cells (K-Ras wild-type)) [µM] | IC50 (HCT116-G31D; HCT116 K-Ras G13D) [µM] | IC50 (Panc10.05-G12D; Panc10.05 K-Ras G12D) [µM] | IC50 ([1]; HCC827 K-Ras wild-type) [µM] | IC50 (Panc1-G12D; Panc1 K-Ras G12D) [µM] | IC50 ([2]; U87-MG K-Ras wild-type) [µM] | IC50 [3, 4] [µM] | IC50 ([3]; Ishikawa K-Ras wild-type) [µM] |
| --- | --- | --- | --- | --- | --- | --- | --- | --- | --- | --- | --- | --- | --- |
| O=C1CCc2cc(-c3csc(NC(=O)c4cc(Br)cs4)n3)ccc2N1 [Compound 149, 4-bromo-N-(4-(2-oxo-1,2,3,4-tetrahydroquinolin-6-yl)thiazol-2-yl)thiophene-2-carboxamide] | 28 | 22 | – | 22 | > 25 | 11 | – | – | – | – | – | 7 | – |
| Cc1nc(C)c(C(=O)Nc2nc(-c3ccc4c(c3)CCC(=O)N4Cc3cccc4ccccc34)cs2)o1 [Compound 79, 2,4-dimethyl-N-(4-(1-(naphthalen-1-ylmethyl)-2-oxo-1,2,3,4-tetrahydroquinolin-6-yl)thiazol-2-yl)oxazole-5-carboxamide] | – | – | – | – | – | – | > 25 | > 25 | > 25 | > 25 | > 25 | – | > 25 |
| Cc1nc(C)c(C(=O)Nc2nc(-c3ccc4c(c3)CCC(=O)N4CC(O)CO)cs2)o1 (stereo not drawn) [Compound 89, N-(4-(1-(2,3-dihydroxypropyl)-2-oxo-1,2,3,4-tetrahydroquinolin-6-yl)thiazol-2-yl)-2,4-dimethyloxazole-5-carboxamide] | – | – | – | – | – | – | 11 | 12 | 12 | > 25 | 13 | – | – |
| Cc1nc(C)c(C(=O)Nc2nc(-c3ccc4c(c3)CCC(=O)N4Cc3cccc4cnccc34)cs2)o1 [Compound 83, N-(4-(1-(isoquinolin-5-ylmethyl)-2-oxo-1,2,3,4-tetrahydroquinolin-6-yl)thiazol-2-yl)-2,4-dimethyloxazole-5-carboxamide] | – | – | > 25 | – | – | – | 4 | 4 | 6 | 12 | 3 | – | 2 |
| Cc1nc(C)c(C(=O)Nc2nc(-c3ccc4c(c3)CCC(=O)N4Cc3ccc4c(c3)OCO4)cs2)o1 [Compound 74, N-(4-(1-(benzo[d][1,3]dioxol-5-ylmethyl)-2-oxo-1,2,3,4-tetrahydroquinolin-6-yl)thiazol-2-yl)-2,4-dimethyloxazole-5-carboxamide] | – | – | 22.4 | – | – | – | > 25 | 2 | > 25 | 11 | 6 | – | 16 |
| Cc1nc(C)c(C(=O)Nc2nc(-c3ccc4c(c3)CCC(=O)N4Cc3ccc4ccccc4c3)cs2)o1 [Compound 80, 2,4-dimethyl-N-(4-(1-(naphthalen-2-ylmethyl)-2-oxo-1,2,3,4-tetrahydroquinolin-6-yl)thiazol-2-yl)oxazole-5-carboxamide] | – | – | – | – | – | – | 9 | 9 | 7 | > 25 | 4 | – | > 25 |
| Cn1nccc1-c1csc(C(=O)Nc2nc(-c3ccc4c(c3)CCC(=O)N4)cs2)c1 [Compound 151, 4-(1-methyl-1H-pyrazol-5-yl)-N-(4-(2-oxo-1,2,3,4-tetrahydroquinolin-6-yl)thiazol-2-yl)thiophene-2-carboxamide] | 2 | 1.4 | 23.5 | 8 | 4 | 5 | – | – | – | – | – | 1.3 | – |
| Cc1nc(C)c(C(=O)Nc2nc(-c3ccc4c(c3)CCC(=O)N4Cc3cccc([N+](=O)[O-])c3)cs2)o1 [Compound 87, 2,4-dimethyl-N-(4-(1-(3-nitrobenzyl)-2-oxo-1,2,3,4-tetrahydroquinolin-6-yl)thiazol-2-yl)oxazole-5-carboxamide] | – | – | – | – | – | – | > 25 | 17 | > 25 | 17 | > 25 | – | – |

The next lines start with results.

| IC50 (HCT116-G31D; HCT116 cells (K-Ras G13D)) [µM] | IC50 (Panc10.05-G12D; Panc10.05 cells (K-Ras G12D)) [µM] | IC50 (K-Ras G12D) [µM] | IC50 ([1]; HCC827 cells (K-Ras wild-type)) [µM] | IC50 (Panc1-G12D; Panc1 cells (K-Ras G12D)) [µM] | IC50 ([2]; U87-MG cells (K-Ras wild-type)) [µM] | IC50 (HCT116-G31D; HCT116 K-Ras G13D) [µM] | IC50 (Panc10.05-G12D; Panc10.05 K-Ras G12D) [µM] | IC50 ([1]; HCC827 K-Ras wild-type) [µM] | IC50 (Panc1-G12D; Panc1 K-Ras G12D) [µM] | IC50 ([2]; U87-MG K-Ras wild-type) [µM] | Structure (SMILES) | IC50 [3, 4] [µM] | IC50 ([3]; Ishikawa K-Ras wild-type) [µM] |
| --- | --- | --- | --- | --- | --- | --- | --- | --- | --- | --- | --- | --- | --- |
| 27 | 20 | > 25 | 20 | 27 | 8 | – | – | – | – | – | O=C1CCc2cc(-c3csc(NC(=O)c4ccc(Cl)s4)n3)ccc2N1 [Compound 150, 5-chloro-N-(4-(2-oxo-1,2,3,4-tetrahydroquinolin-6-yl)thiazol-2-yl)thiophene-2-carboxamide] | 5 | – |
| – | – | – | – | – | – | > 25 | > 25 | > 25 | > 25 | > 25 | COc1cc(Cl)cc(CN2C(=O)CCc3cc(-c4csc(NC(=O)c5oc(C)nc5C)n4)ccc32)c1 [Compound 78] | – | > 25 |
| – | – | – | – | – | – | > 25 | > 25 | > 25 | > 25 | > 25 | COc1cc(CN2C(=O)CCc3cc(-c4csc(NC(=O)c5oc(C)nc5C)n4)ccc32)cc(OC)c1 [Compound 77, N-(4-(1-(3,5-dimethoxybenzyl)-2-oxo-1,2,3,4-tetrahydroquinolin-6-yl)thiazol-2-yl)-2,4-dimethyloxazole-5-carboxamide] | – | > 25 |
| – | – | – | – | – | – | 17 | 16 | 15 | > 25 | 19 | Cc1nc(C)c(C(=O)Nc2nc(-c3ccc4c(c3)CCC(=O)N4CC3CCCNC3)cs2)o1 (stereo not drawn) [Compound 88] | – | – |
| – | – | – | – | – | – | 26 | 3 | > 25 | 5 | 11 | Cc1cc(C)c(C(=O)Nc2nc(-c3ccc4c(c3)CCC(=O)N4)cs2)cn1 [Compound 18] | – | 2 |
| – | – | – | – | – | – | 16 | 16 | 21 | > 25 | > 25 | Cc1nc(C2CCCCC2)oc1C(=O)Nc1nc(-c2ccc3c(c2)CCC(=O)N3)cs1 [Compound 11, 2-cyclohexyl-4-methyl-N-(4-(2-oxo-1,2,3,4-tetrahydroquinolin-6-yl)thiazol-2-yl)oxazole-5-carboxamide] | – | – |
| – | – | – | – | – | – | 5 | 2 | 8 | 6 | 4 | Cc1nc(-c2ccc3c(c2)OCC3)sc1C(=O)Nc1nc(-c2ccc3c(c2)CCC(=O)N3)cs1 [Compound 19, 2-(2,3-dihydrobenzofuran-6-yl)-4-methyl-N-(4-(2-oxo-1,2,3,4-tetrahydroquinolin-6-yl)thiazol-2-yl)thiazole-5-carboxamide] | – | 2 |
